Legend:
[1] = for mass density: 101.33 kPa, Vibrating tube method; for mass density / surface tension liquid-gas: Liquid; for surface tension liquid-gas: Maximal bubble pressure; for Glass transition temperature: DSC
[2] = refractive index (Na D-line) (dimensionless); conditions: 101.33 kPa, Liquid, Standard Abbe refractometry

CCC[n+]1ccn(C)c1.N[C@@H](CO)C(=O)[O-] [1-methyl-3-propylimidazolium L-serinate]
Conditions | mass density, [1] [kg/m3] | refractive index, [2] | surface tension liquid-gas, [1] [mN/m]
298.15 K | 1181.51 | 1.5179 | 46.8
303.15 K | 1178.34 | 1.5165 | 46.6
308.15 K | 1175.19 | 1.5153 | 46.4
313.15 K | 1172.03 | 1.5141 | 46.1
318.15 K | 1168.88 | 1.5131 | 45.8
323.15 K | 1165.67 | 1.5123 | 45.6
328.15 K | 1162.6 | 1.5112 | 45.4
333.15 K | 1159.49 | 1.51 | 45.1
338.15 K | 1156.42 | 1.5086 | 44.9

Conditions | Glass transition temperature [°C]
[1] | -54.5

CCCCn1cc[n+](C)c1.N[C@@H](CO)C(=O)[O-] [1-butyl-3-methylimidazolium L-serinate]
Conditions | mass density, [1] [kg/m3] | refractive index, [2] | surface tension liquid-gas, [1] [mN/m]
298.15 K | 1156.04 | 1.5143 | 45.4
303.15 K | 1152.82 | 1.5135 | 45.2
308.15 K | 1149.61 | 1.5126 | 45
313.15 K | 1146.45 | 1.5114 | 44.7
318.15 K | 1143.31 | 1.5106 | 44.4
323.15 K | 1140.08 | 1.5096 | 44.3
328.15 K | 1136.91 | 1.5091 | 44
333.15 K | 1133.81 | 1.5077 | 43.8
338.15 K | 1130.64 | 1.5069 | 43.5

Conditions | Glass transition temperature [°C]
[1] | -47.20
